Results published in patent US12655110B2, “Method of producing a crystalline form of sodium 2-[(4S)-8-fluoro-2-[4-(3- methoxyphenyl)piperazin-1-yl]-3-[2-methoxy-5-(trifluoromethyl)phenyl]-4H-quinazoline-4-yl]acetate trihydrate” (A1C246 AG & CO. KG, priority 2020, dated 2026).

Tests used:
Type in all cases: physicochemical
[1] = Hygroscopicity (DVS); conditions: for PXRD after DVS experiment (solid form): after hygroscopicity (DVS) experiment
[2] = Solid form stability in a drying process; conditions: drying process (>60° C.)
[3] = Thermogravimetric analysis (TGA), decomposition; conditions: heated under nitrogen at 10° C./min from 30° C. to 300° C.
Experimental: Thermogravimetric analysis (TGA): Thermogravimetric analyses were recorded in a Mettler Toledo TGA/SDTA851 with a balance MT1 type. Approximately 3-4 mg of sample were weighed (using a MX5 Mettler Toledo microbalance) into 40 μL aluminium crucibles with a pinhole lid and heated under nitrogen (10 mL/min) at 10° C./min from 30° C. to 300° C. Programs used: Data collection and evaluation with software STARe.

CCO.COc1cccc(N2CCN(C3=Nc4c(F)cccc4[C@H](CC(=O)[O-])N3c3cc(C(F)(F)F)ccc3OC)CC2)c1.O.[Na+] [Ethanol/Water Solvate, sodium 2-[(4S)-8-fluoro-2-[4-(3-methoxyphenyl)piperazin-1-yl]-3-[2-methoxy-5-(trifluoromethyl)phenyl]-4H-quinazolin-4-yl]acetate ethanol monohydrate]
Hygroscopicity (DVS): water adsorption ([1]; 10-80% RH): 5.3% water adsorption (10-80% RH) | Hygroscopicity (DVS): water adsorption ([1]; 10-90% RH): 3.2% water adsorption (10-90% RH) | PXRD after DVS experiment (solid form) [1]: PXRD after experiment: trihydrate | Solid form change in a drying process [2]: The solid turns into the amorphous | TGA: decomposition occurs at [3]: Decomposition occurs at ca. 250 °C

COc1cccc(N2CCN(C3=Nc4c(F)cccc4[C@H](CC(=O)O)N3c3cc(C(F)(F)F)ccc3OC)CC2)c1 [Trihydrate, sodium 2-[(4S)-8-fluoro-2-[4-(3-methoxyphenyl)piperazin-1-yl]-3-[2-methoxy-5-(trifluoromethyl)phenyl]-4H-quinazolin-4-yl]acetate trihydrate]
Hygroscopicity (DVS): water adsorption ([1]; 10-80% RH): 4.1% water adsorption (10-80% RH) | Hygroscopicity (DVS): water adsorption ([1]; 10-90% RH): 8.6% water adsorption (10-90% RH) | PXRD after DVS experiment (solid form) [1]: No PXRD changes after experiment | Solid form change in a drying process [2]: The solid turns into the amorphous | TGA: decomposition occurs at [3]: Decomposition occurs at ca. 250 °C
